From US10669289B2, “Boronic acid derivatives” (MERCK PATENT GMBH, priority 2014, dated 2020)
pIC50: −log10 of the molar value. Each block holds one compound with its values, some of them ahead of it.

What was measured:
[1] = molecular target: human constitutive proteasome (Beta5) (Homo sapiens (Human), UniProt P28074); assay: Determination of Beta5 activity (fluorescence intensity assay, Suc-LLVY-AMC); assay type: biochemical
Description: Determination of Beta5 Activity:
Measurement of Beta5 inhibition is performed in 384 well format based on fluorescence intensity assay.
(§1) Purified human constitutive proteasome (1.25 nM) and serial diluted compounds in DMSO (range of concentrations from 30 μM to 15 pM) or controls are incubated for 20 minutes or 120 minutes (long incubation) at 25° C. in assay buffer containing 50 mM Tris pH 7.4, 0.03% SDS, 1 mM EDTA and 1% DMSO. The reaction is initiated by the addition of the fluorogenic peptide substrate, Suc-LLVY-AMC (Bachem 1-1395), at a concentration of 40 μM. After 60 minutes of incubation at 37° C., fluorescence intensity is measured at λex=350 nm and λem=450 nm with a fluorescence reader (Perkin Elmer Envision reader or equivalent).
(§2) Unless indicated otherwise the results are obtained after incubation for 20 minutes.

[2] = molecular target: human immuno proteasome (LMP7) (Homo sapiens (Human), UniProt P28062); assay: Determination of LMP7 activity (fluorescence intensity assay, Suc-LLVY-AMC); assay type: biochemical
Description: Determination of LMP7 Activity:
Measurement of LMP7 inhibition is performed in 384 well format based on fluorescence intensity assay.
as §1, with “immuno” for “constitutive”, “(0.25” for “(1.25”
as §2

[3] = LMP7 versus Beta5, incubation for 20 minutes
[4] = LMP7 versus Beta5, long incubation (120 min)

Structure (SMILES): CC#CC(=O)N(C)CC(=O)N[C@@H](Cc1ccc(C)cc1C)B(O)O [Compound No. 20, [(1R)-1-[[2-[but-2-ynoyl(methyl)amino]acetyl]amino]-2-(2,4-dimethylphenyl)ethyl]boronic Acid]
pIC50 ([1]; incubation for 20 minutes): 5.30 to 6.30
Selectivity LMP7 vs Beta5 [2, 3]: + (Selectivity < 50)
pIC50 ([2]; incubation for 20 minutes): > 7.30

Structure (SMILES): C=CC(=O)N(CC(=O)N[C@@H](Cc1ccc(C)cc1C)B(O)O)c1ccccc1F [Compound No. 1, [(1R)-2-(2,4-dimethylphenyl)-1-[[2-(2-fluoro-N-prop-2-enoyl-anilino)acetyl]amino]ethyl]boronic Acid]
pIC50 ([1]; incubation for 20 minutes): < 5.30
Selectivity LMP7 vs Beta5 [2, 3]: +++++ (Selectivity ≥ 150)
pIC50 ([2]; incubation for 20 minutes): > 7.30

Structure (SMILES): C=CC(=O)N(CC)CC(=O)N[C@@H](Cc1ccc(C)c(C)c1C)B(O)O [Compound No. 72, [(1R)-1-[[2-[ethyl(prop-2-enoyl)amino]acetyl]amino]-2-(2,3,4-trimethylphenyl)ethyl]boronic Acid]
pIC50 ([1]; long incubation (120 min)): < 5.30
Selectivity LMP7 vs Beta5 [2, 4]: +++++ (Selectivity ≥ 150)
pIC50 ([2]; long incubation (120 min)): 6.30 to 7.30

Structure (SMILES): C=CC(=O)N(CC)CC(=O)N[C@@H](Cc1ccc(C(F)(F)F)cc1C)B(O)O [Compound No. 64, [(1R)-1-[[2-[ethyl(prop-2-enoyl)amino]acetyl]amino]-2-[2-methyl-4-(trifluoromethyl)phenyl]ethyl]boronic Acid]
pIC50 ([1]; long incubation (120 min)): < 5.30
Selectivity LMP7 vs Beta5 [2, 4]: +++++ (Selectivity ≥ 150)
pIC50 ([2]; long incubation (120 min)): 6.30 to 7.30

Structure (SMILES): C=CS(=O)(=O)N(C)CC(=O)N[C@@H](Cc1ccc(C)c(C)c1)B(O)O [Compound No. 10, [(1R)-2-(3,4-dimethylphenyl)-1-[[2-[methyl(vinylsulfonyl)amino]-acetyl]amino]ethyl]boronic Acid]
pIC50 ([1]; incubation for 20 minutes): 5.30 to 6.30
Selectivity LMP7 vs Beta5 [2, 3]: +++++ (Selectivity ≥ 150)
pIC50 ([2]; incubation for 20 minutes): > 7.30

Structure (SMILES): C/C=C\C(=O)N(CC)CC(=O)N[C@@H](Cc1ccc(C)cc1C)B(O)O [Compound No. 18, [(1R)-1-[[2-[[(Z)-but-2-enoyl]-ethyl-amino]acetyl]amino]-2-(2,4-dimethylphenyl)ethyl]boronic Acid]
pIC50 ([1]; incubation for 20 minutes): 5.30 to 6.30
Selectivity LMP7 vs Beta5 [2, 3]: +++ (70 ≤ 100)
pIC50 ([2]; incubation for 20 minutes): 6.30 to 7.30

Structure (SMILES): C=CC(=O)N(CC(=O)N[C@@H](Cc1ccc(C)cc1C)B(O)O)c1cc(F)ccc1F [Compound No. 42, [(1R)-1-[[2-(2,5-difluoro-N-prop-2-enoyl-anilino)acetyl]amino]-2-(2,4-dimethylphenyl)ethyl]boronic Acid]
pIC50 ([1]; long incubation (120 min)): < 5.30
Selectivity LMP7 vs Beta5 [2, 4]: +++++ (Selectivity ≥ 150)
pIC50 ([2]; long incubation (120 min)): > 7.30

Structure (SMILES): C=CC(=O)N(CC(=O)N[C@@H](Cc1ccc(C)c(C)c1)B(O)O)c1ccccc1 [Compound No. 17, [(1R)-2-(3,4-dimethylphenyl)-1-[[2-(N-prop-2-enoylanilino)acetyl]-amino]ethyl]boronic Acid]
pIC50 ([1]; incubation for 20 minutes): 5.30 to 6.30
Selectivity LMP7 vs Beta5 [2, 3]: +++ (70 ≤ 100)
pIC50 ([2]; incubation for 20 minutes): > 7.30

Structure (SMILES): C=CC(=O)N(CC(=O)NC(Cc1ccsc1)B(O)O)c1ccccc1CC (centres unmarked) [Compound No. 93, [1-[[2-(2-ethyl-N-prop-2-enoyl-anilino)acetyl]amino]-2-(3-thienyl)ethyl]boronic Acid]
pIC50 ([1]; long incubation (120 min)): < 5.30
Selectivity LMP7 vs Beta5 [2, 4]: +++++ (Selectivity ≥ 150)
pIC50 ([2]; long incubation (120 min)): 6.30 to 7.30

Structure (SMILES): C=CC(=O)N1CCC[C@@H]1C(=O)N[C@@H](Cc1ccc(C)cc1C)B(O)O [Compound No. 53, [(1R)-2-(2,4-dimethylphenyl)-1-[[(2R)-1-prop-2-enoylpyrrolidine-2-carbonyl]amino]ethyl]boronic Acid]
pIC50 ([1]; long incubation (120 min)): < 5.30
Selectivity LMP7 vs Beta5 [2, 4]: ++ (50 ≤ Selectivity < 70)
pIC50 ([2]; long incubation (120 min)): 5.30 to 6.30

Structure (SMILES): C=CC(=O)N1CCC[C@H]1C(=O)N[C@@H](Cc1ccc(C)cc1C)B(O)O [Compound No. 58, [(1R)-2-(2,4-dimethylphenyl)-1-[[(2S)-1-prop-2-enoylpyrrolidine-2-carbonyl]amino]ethyl]boronic Acid]
pIC50 ([1]; incubation for 20 minutes): < 5.30
Selectivity LMP7 vs Beta5 [2, 3]: ++ (50 ≤ Selectivity < 70)
pIC50 ([2]; incubation for 20 minutes): 5.30 to 6.30

Structure (SMILES): C=CC(=O)N(CC(=O)N[C@@H](Cc1ccc(C)cc1C)B(O)O)c1ccccc1Cl [Compound No. 87, [(1R)-1-[[2-(2-chloro-N-prop-2-enoyl-anilino)acetyl]amino]-2-(2,4-dimethylphenyl)ethyl]boronic Acid]
pIC50 ([1]; incubation for 20 minutes): < 5.30
Selectivity LMP7 vs Beta5 [2, 3]: +++++ (Selectivity ≥ 150)
pIC50 ([2]; incubation for 20 minutes): > 7.30

Structure (SMILES): C=CC(=O)N1c2ccccc2CC1C(=O)N[C@@H](Cc1ccc(C)cc1C)B(O)O (stereo partly drawn) [Compound No. 8, [(1R)-2-(2,4-dimethylphenyl)-1-[(1-prop-2-enoylindoline-2-carbonyl)amino]ethyl]boronic Acid]
pIC50 ([1]; incubation for 20 minutes): 5.30 to 6.30
Selectivity LMP7 vs Beta5 [2, 3]: +++ (70 ≤ 100)
pIC50 ([2]; incubation for 20 minutes): > 7.30

Structure (SMILES): C=CC(=O)N(CC(=O)N[C@@H](Cc1ccsc1)B(O)O)c1ccccc1F [Compound No. 78, [(1R)-1-[[2-(2-fluoro-N-prop-2-enoyl-anilino)acetyl]amino]-2-(3-thienyl)ethyl]boronic Acid]
pIC50 ([1]; long incubation (120 min)): < 5.30
Selectivity LMP7 vs Beta5 [2, 4]: +++++ (Selectivity ≥ 150)
pIC50 ([2]; long incubation (120 min)): > 7.30

Structure (SMILES): C=CC(=O)N(CC(=O)N[C@@H](Cc1ccc(C)cc1C)B(O)O)c1ccc(F)cc1 [Compound No. 2, [(1R)-2-(2,4-dimethylphenyl)-1-[[2-(4-fluoro-N-prop-2-enoyl-anilino)acetyl]amino]ethyl]boronic Acid]
pIC50 ([1]; incubation for 20 minutes): 5.30 to 6.30
Selectivity LMP7 vs Beta5 [2, 3]: ++++ (100 ≤ Selectivity < 150)
pIC50 ([2]; incubation for 20 minutes): > 7.30

Structure (SMILES): C=CC(=O)N(CC)CC(=O)N[C@@H](Cc1cccc2ccccc12)B(O)O [Compound No. 79, [(1R)-1-[[2-[ethyl(prop-2-enoyl)amino]acetyl]amino]-2-(1-naphthyl)ethyl]boronic Acid]
pIC50 ([1]; long incubation (120 min)): < 5.30
Selectivity LMP7 vs Beta5 [2, 4]: +++++ (Selectivity ≥ 150)
pIC50 ([2]; long incubation (120 min)): 6.30 to 7.30

Structure (SMILES): C=CC(=O)N1CCCC[C@@H]1C(=O)N[C@@H](Cc1ccc(Cl)cc1Cl)B(O)O [Compound No. 51, [(1R)-2-(2,4-dichlorophenyl)-1-[[(2R)-1-prop-2-enoylpiperidine-2-carbonyl]amino]ethyl]boronic Acid]
pIC50 ([1]; long incubation (120 min)): < 5.30
Selectivity LMP7 vs Beta5 [2, 4]: ++++ (100 ≤ Selectivity < 150)
pIC50 ([2]; long incubation (120 min)): 6.30 to 7.30

The next lines start with the values.

pIC50 ([1]; long incubation (120 min)): 5.30 to 6.30
Selectivity LMP7 vs Beta5 [2, 4]: +++++ (Selectivity ≥ 150)
pIC50 ([2]; long incubation (120 min)): > 7.30
Structure (SMILES): C=CC(=O)N(CC(=O)N[C@@H](Cc1ccsc1)B(O)O)c1ccc(CC)cc1 [Compound No. 96, [(1R)-1-[[2-(4-ethyl-N-prop-2-enoyl-anilino)acetyl]amino]-2-(3-thienyl)ethyl]boronic Acid]

pIC50 ([1]; long incubation (120 min)): < 5.30
Selectivity LMP7 vs Beta5 [2, 4]: +++++ (Selectivity ≥ 150)
pIC50 ([2]; long incubation (120 min)): > 7.30
Structure (SMILES): C=CC(=O)N(CC#N)CC(=O)N[C@@H](Cc1ccc(C)cc1C)B(O)O [Compound No. 56, [(1R)-1-[[2-[cyanomethyl(prop-2-enoyl)amino]acetyl]-amino]-2-(2,4-dimethylphenyl)ethyl]boronic Acid]

pIC50 ([1]; long incubation (120 min)): < 5.30
Selectivity LMP7 vs Beta5 [2, 4]: +++++ (Selectivity ≥ 150)
pIC50 ([2]; long incubation (120 min)): > 7.30
Structure (SMILES): C=CC(=O)N(CC#N)CC(=O)N[C@@H](Cc1ccc(C)c(C)c1)B(O)O [Compound No. 63, [(1R)-1-[[2-[cyanomethyl(prop-2-enoyl)amino]acetyl]amino]-2-(3,4-dimethylphenyl)ethyl]boronic Acid]

pIC50 ([1]; incubation for 20 minutes): 5.30 to 6.30
Selectivity LMP7 vs Beta5 [2, 3]: + (Selectivity < 50)
pIC50 ([2]; incubation for 20 minutes): 6.30 to 7.30
Structure (SMILES): C=CC(=O)N(CC)CC(=O)N[C@@H](Cc1ccc(Cl)cc1)B(O)O [Compound No. 25, [(1R)-2-(4-chlorophenyl)-1-[[2-[ethyl(prop-2-enoyl)amino]acetyl]-amino]ethyl]boronic Acid]

pIC50 ([1]; long incubation (120 min)): < 5.30
Selectivity LMP7 vs Beta5 [2, 4]: +++++ (Selectivity ≥ 150)
pIC50 ([2]; long incubation (120 min)): > 7.30
Structure (SMILES): C=CC(=O)N(CC)CC(=O)N[C@@H](Cc1ccc2ccccc2c1)B(O)O [Compound No. 81, [(1R)-1-[[2-[ethyl(prop-2-enoyl)amino]acetyl]amino]-2-(2-naphthyl)ethyl]boronic Acid]

pIC50 ([1]; long incubation (120 min)): 5.30 to 6.30
Selectivity LMP7 vs Beta5 [2, 4]: +++++ (Selectivity ≥ 150)
Structure (SMILES): C=CC(=O)N(CC(=O)N[C@@H](Cc1ccc(Cl)c(Cl)c1)B(O)O)C1CC1 [Compound No. 69, [(1R)-1-[[2-[cyclopropyl(prop-2-enoyl)amino]acetyl]amino]-2-(3,4-dichlorophenyl)ethyl]boronic Acid]

pIC50 ([1]; incubation for 20 minutes): 5.30 to 6.30
Selectivity LMP7 vs Beta5 [2, 3]: ++++ (100 ≤ Selectivity < 150)
pIC50 ([2]; incubation for 20 minutes): > 7.30
Structure (SMILES): C=CC(=O)N(CC)CC(=O)N[C@@H](Cc1ccc(C)cc1)B(O)O [Compound No. 31, [(1R)-1-[[2-[ethyl(prop-2-enoyl)amino]acetyl]amino]-2-(p-tolyl)ethyl]-boronic Acid]

pIC50 ([1]; long incubation (120 min)): < 5.30
Selectivity LMP7 vs Beta5 [2, 4]: +++++ (Selectivity ≥ 150)
pIC50 ([2]; long incubation (120 min)): > 7.30
Structure (SMILES): C=CC(=O)N(CC(=O)N[C@@H](Cc1ccc(Cl)cc1Cl)B(O)O)CC(F)(F)F [Compound No. 60, [(1R)-2-(2,4-dichlorophenyl)-1-[[2-[prop-2-enoyl(2,2,2-trifluoroethyl)amino]acetyl]amino]ethyl]boronic Acid]
